Data reported in patent publication US12077503B2, “Substituted cyclic amides and their use as herbicides” (FMC CORPORATION, priority 2015, dated 2024).
Like-named read-outs stand apart in the source and are kept apart here.

Assays:
Assay in all cases: Test A postemergence
Format in all cases: in vivo
[1] = tested on: ragweed (common ragweed, Ambrosia elatior); conditions: Ambrosia artemisiifolia, post-emergence, 240 h; for pest or weed control at 125 g/ha: 125 g ai/ha, postemergence; for pest or weed control at 31 g/ha: Postemergence, 31 g ai/ha, visual injury after approx. 10 d, 0 to 100 scale, 0 no effect, 100 complete control
Method in brief: (§1)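 Visual injury scores from 0, no effect, to 100, complete control, were assigned versus untreated controls roughly 10 d after treatment in the greenhouse. Test chemicals, formulated with surfactant in a non-phytotoxic solvent, were applied to planted seeds as a preemergence soil spray or postemergence to one- to two-leaf plants 2 to 10 cm tall, in loam–sand soil.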

[2] = tested on: blackgrass (Alopecurus myosuroides); conditions: Alopecurus myosuroides, post-emergence, 240 h; for pest or weed control at 125 g/ha: 125 g ai/ha, postemergence; for pest or weed control at 31 g/ha: Postemergence, 31 g ai/ha, visual injury after approx. 10 d, 0 to 100 scale, 0 no effect, 100 complete control
Method in brief: as §1

[3] = tested on: barnyardgrass (Echinochloa crus-galli); conditions: Echinochloa crus-galli, post-emergence, 240 h; for pest or weed control at 125 g/ha: 125 g ai/ha, postemergence; for pest or weed control at 31 g/ha: Postemergence, 31 g ai/ha, visual injury after approx. 10 d, 0 to 100 scale, 0 no effect, 100 complete control
Method in brief: as §1

Kochia (Kochia scoparia) = conditions: Bassia scoparia, post-emergence, 240 h; for pest or weed control at 125 g/ha: 125 g ai/ha, postemergence; for pest or weed control at 31 g/ha: Postemergence, 31 g ai/ha, visual injury after approx. 10 d, 0 to 100 scale, 0 no effect, 100 complete control
Method in brief: as §1

[4] = tested on: giant foxtail (Setaria faberii); conditions: Setaria faberi, post-emergence, 240 h; for pest or weed control at 125 g/ha: 125 g ai/ha, postemergence; for pest or weed control at 31 g/ha: Postemergence, 31 g ai/ha, visual injury after approx. 10 d, 0 to 100 scale, 0 no effect, 100 complete control
Method in brief: as §1

[5] = tested on: Galium (catchweed bedstraw, Galium aparine); conditions: Galium, post-emergence, 240 h; for pest or weed control at 125 g/ha: 125 g ai/ha, postemergence; for pest or weed control at 31 g/ha: Postemergence, 31 g ai/ha, visual injury after approx. 10 d, 0 to 100 scale, 0 no effect, 100 complete control
Method in brief: as §1

[6] = visual injury after approximately 10 d, 0 to 100 scale (0 no effect, 100 complete control), read-out: Plant response rating, Ragweed
[7] = visual injury after approximately 10 d, 0 to 100 scale (0 no effect, 100 complete control), read-out: Plant response rating, Blackgrass
[8] = visual injury after approximately 10 d, 0 to 100 scale (0 no effect, 100 complete control), read-out: Plant response rating, Barnyardgrass
[9] = visual injury after approximately 10 d, 0 to 100 scale (0 no effect, 100 complete control), read-out: Plant response rating, Kochia
[10] = visual injury after approximately 10 d, 0 to 100 scale (0 no effect, 100 complete control), read-out: Plant response rating, Foxtail, Giant
[11] = visual injury after approximately 10 d, 0 to 100 scale (0 no effect, 100 complete control), read-out: Plant response rating, Galium
[12] = read-out: Plant response rating, Ragweed
[13] = read-out: Plant response rating, Blackgrass
[14] = read-out: Plant response rating, Barnyardgrass
[15] = read-out: Plant response rating, Kochia
[16] = read-out: Plant response rating, Foxtail, Giant
[17] = read-out: Plant response rating, Galium
[18] = visual injury rating after approximately 10 d, read-out: Ragweed plant response rating (0 to 100 scale, 0 no effect, 100 complete control)
[19] = visual injury rating after approximately 10 d, read-out: Blackgrass plant response rating (0 to 100 scale, 0 no effect, 100 complete control)
[20] = visual injury rating after approximately 10 d, read-out: Barnyardgrass plant response rating (0 to 100 scale, 0 no effect, 100 complete control)
[21] = visual injury rating after approximately 10 d, read-out: Kochia plant response rating (0 to 100 scale, 0 no effect, 100 complete control)
[22] = visual injury rating after approximately 10 d, read-out: Foxtail, Giant plant response rating (0 to 100 scale, 0 no effect, 100 complete control)
[23] = visual injury rating after approximately 10 d, read-out: Galium plant response rating (0 to 100 scale, 0 no effect, 100 complete control)

Structure (SMILES)	pest or weed control at 125 g/ha [1, 6] [%]	pest or weed control at 125 g/ha [2, 7] [%]	pest or weed control at 125 g/ha [3, 8] [%]	pest or weed control at 125 g/ha (Kochia (Kochia scoparia); [9]) [%]	pest or weed control at 125 g/ha [4, 10] [%]	pest or weed control at 125 g/ha [5, 11] [%]	pest or weed control at 31 g/ha [1, 12] [%]	pest or weed control at 31 g/ha [2, 13] [%]	pest or weed control at 31 g/ha [3, 14] [%]	pest or weed control at 31 g/ha (Kochia (Kochia scoparia); [15]) [%]	pest or weed control at 31 g/ha [4, 16] [%]	pest or weed control at 31 g/ha [5, 17] [%]	pest or weed control at 125 g/ha [1, 18] [%]	pest or weed control at 125 g/ha [2, 19] [%]	pest or weed control at 125 g/ha [3, 20] [%]	pest or weed control at 125 g/ha (Kochia (Kochia scoparia); [21]) [%]	pest or weed control at 125 g/ha [4, 22] [%]	pest or weed control at 125 g/ha [5, 23] [%]
O=C1NC[C@H](c2csc3ccccc23)[C@H]1C(=O)Nc1ccccc1F [Compound 750]	0	0	70	0	20	0	–	–	–	–	–	–	–	–	–	–	–	–
O=C1NC[C@H](c2csc3ccccc23)[C@H]1C(=O)Nc1cccc(F)c1F [Compound 751]	0	20	60	0	30	40	–	–	–	–	–	–	–	–	–	–	–	–
CN1C[C@H](c2cc(F)cc(F)c2)[C@@H](C(=O)NC2CCc3ccccc32)C1=O (stereo partly drawn) [Compound 755]	0	0	0	0	0	0	–	–	–	–	–	–	–	–	–	–	–	–
Cc1ccc(NC(=O)[C@H]2C(=O)N(C)C[C@@H]2c2cc(F)cc(F)c2)c(F)c1 [Compound 760]	0	0	80	0	80	0	–	–	–	–	–	–	–	–	–	–	–	–
Cc1ccc([C@H]2CNC(=S)[C@@H]2C(=O)Nc2cccc(F)c2F)cc1C [Compound 765]	0	0	70	0	0	0	–	–	–	–	–	–	–	–	–	–	–	–
COc1cc([C@H]2CN(C)C(=O)[C@@H]2C(=O)Nc2ccccc2SC)ccc1C(F)(F)F [Compound 769]	0	0	50	0	70	50	–	–	–	–	–	–	–	–	–	–	–	–
Cc1ccc(NC(=O)[C@H]2C(=O)N(C)C[C@@H]2c2cc(F)cc(F)c2)c(F)c1F [Compound 771]	20	70	90	50	90	50	–	–	–	–	–	–	–	–	–	–	–	–
CN1C[C@H](c2nccs2)[C@@H](C(=O)Nc2cccc(F)c2F)C1=O [Compound 774]	0	0	0	0	0	0	–	–	–	–	–	–	–	–	–	–	–	–
O=C1NC[C@H](c2ccc3c(c2)CCO3)[C@H]1C(=O)Nc1ccccc1F [Compound 786]	0	0	80	0	40	10	–	–	–	–	–	–	–	–	–	–	–	–
CN1C[C@H](c2ccc(OC(F)F)cc2)[C@@H](C(=O)Nc2ccccc2S(C)(=O)=O)C1=O [Compound 788]	40	20	80	40	70	50	–	–	–	–	–	–	–	–	–	–	–	–
Cc1cc([C@H]2CN(C)C(=O)[C@@H]2C(=O)Nc2cccc(F)c2F)cc(C)c1C [Compound 796]	0	30	90	0	90	40	0	0	80	0	80	0	–	–	–	–	–	–
Cc1cc([C@H]2CN(C)C(=O)[C@@H]2C(=O)Nc2ccccc2F)cc(C)c1C [Compound 797]	0	0	90	0	90	30	0	0	90	0	80	0	–	–	–	–	–	–
Cc1cc(F)cc([C@H]2CN(C)C(=O)[C@@H]2C(=O)Nc2cccc(F)c2C#N)c1 [Compound 800]	0	20	80	0	80	30	0	0	80	0	80	0	–	–	–	–	–	–
Cc1cc(F)cc([C@H]2CN(C)C(=O)[C@@H]2C(=O)Nc2cccc(F)c2C)c1 [Compound 802]	–	–	–	–	–	–	0	20	80	20	70	0	30	60	80	40	90	60
CN1C[C@H](c2ccc(C(F)(F)F)c(Br)c2)[C@@H](C(=O)Nc2cccc(F)c2F)C1=O [Compound 804]	–	–	–	–	–	–	0	0	20	40	60	40	0	20	70	70	80	50
CN1CC[C@H](c2cccc(OC(F)(F)F)c2)[C@@H](C(=O)Nc2ccccc2C(F)(F)F)C1=O [Compound 806]	–	–	–	–	–	–	0	0	0	0	0	0	0	0	0	0	0	0
CN1CC[C@H](c2cccc(OC(F)(F)F)c2)[C@@H](C(=O)Nc2ccc(F)c(F)c2F)C1=O [Compound 808]	–	–	–	–	–	–	0	0	50	0	70	0	0	0	70	0	80	0
